What all share (format): biochemical
In experiment [1] the target is T1, recombinant human sPLA2-IIA enzyme (Homo sapiens, UniProt P14555).
T1 construct: made in house; host or cells: E. coli
T1 sequence (P14555 21-144): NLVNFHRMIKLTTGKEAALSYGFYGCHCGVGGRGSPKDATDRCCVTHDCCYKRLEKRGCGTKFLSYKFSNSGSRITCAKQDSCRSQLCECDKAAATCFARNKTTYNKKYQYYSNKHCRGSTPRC
Put plainly: sPLA2-IIA enzyme inhibition assay (thio-PC substrate, DTNB detection, absorbance 410 nm). Particulars: class symbols; read-out: sPLA2 Type IIa Inhibition (IC50; nM). An excerpt:
(§1) Screening Compounds for Inhibition of sPLA2-X, sPLA2-V, and sPLA2-IIA Enzyme Activity
(§2) These sPLA2 enzymes hydrolyze the sn-2 acyl chains of glycerophospholipids, resulting in the release of a free fatty acid and a lysophospholipid. In the case of the thio-PC substrate, this enzymatic hydrolysis results in a free sulfhydryl group remaining on the lysophospholipid. This free sulfhydryl reacts with DTNB to produce the chromogenic product 5-nitro-2-thiobenzoic acid (TNB) which can be quantitated by absorbance at 410 nm. The amount of TNB produced reflects the hydrolytic activity of the enzyme.
(§3) The recombinant human sPLA2 groups IIA, V, and X enzymes were expressed in E. coli and purified to >90% purity by standard biochemical methods.
(§4) Procedure of Enzyme Inhibition for sPLA2-X • 1. […] Dilute the test compounds in 100% DMSO by half-log steps in a 96-well dilution plate using columns 1-11 (one compound per row). Column 12 contains DMSO alone with no compound. • 3. Prepare a 3.5 mM thio-PC substrate solution by drying down 7.2 mg of stock thio-PC in ethanol under a gentle stream of N2 gas. When dry, add 4 mL assay buffer (25 mM Tris, pH7.4; 100 mM KCl; 10 mM CaCl2; 0.1% Triton X-100) and warm in a 37° C. water bath for 20 minutes with intermittent vortexing. • 4. Prepare an “enzyme containing” reaction mix with the following components: 20.4 mL assay buffer; 2 mL DTNB (20 mM in 800 mM Tris, pH8.0); and 11.8 mg recombinant human sPLA2-X enzyme (>95% pure) diluted to a total of 0.8 mL assay buffer. • 5. Prepare a “no enzyme” reaction mix with the following components: 477 μL assay buffer and 45 μL DTNB. • 6. Dispense 58 μL “no enzyme” reaction mix into each of 8 wells (columns 23 and 24, rows M-P). • 7. Dispense 58 μL “enzyme containing” reaction mix into all remaining wells on the plate. • 8. From the 96-well compound dilution plate, add 2 μL from each well for each compound to each of 4 wells with “enzyme containing” reaction mix. Columns 23 and 24 on the assay plate will contain only DMSO (vehicle control). […] After compound addition, mix the contents of each well to ensure that the DMSO is evenly distributed in the well. • 9. Cover the plate and incubate in the dark at room temperature for 15 minutes. • 10. Add 10 μL of thio-PC substrate to all wells. The final concentration of thio-PC in the reactions is 0.5 mM. • 11. Cover the plate and incubate in the dark at room temperature for 30 minutes. • 12. Measure the absorbance of all wells at 410 nm. • 13. Determine the mean absorbance of the “no enzyme” wells. Subtract this value from the absorbance values determined for all other wells (these are now background corrected data). • 14. […] Procedure of Enzyme Inhibition for sPLA2-V • 1. […] Dilute the test compounds in 100% DMSO by half-log steps in a 96-well dilution plate using columns 1-11. Column 12 contains DMSO alone with no compound. • 3. Prepare a 3.5 mM thio-PC substrate solution by drying down 7.2 mg of stock thio-PC in ethanol under a gentle stream of N2 gas. When dry, add 4 mL assay buffer (25 mM Tris, pH7.4; 100 mM KCl; 10 mM CaCl2; 0.1% Triton X-100) and warm in a 37° C. water bath for 20 minutes with intermittent vortexing. • 4. Prepare an “enzyme containing” reaction mix with the following components: 20.4 mL assay buffer; 2 mL DTNB (20 mM in 800 mM Tris, pH8.0); and 12 mg recombinant human sPLA2-V enzyme (>95% pure) diluted to a total of 0.8 mL assay buffer. • 5. Prepare a “no enzyme” reaction mix with the following components: 477 μL assay buffer and […]. • 6. Dispense 58 μL “no enzyme” reaction mix into each of 8 wells (columns 23 and 24, rows M-P). • 7. Dispense 58 μL “enzyme containing” reaction mix into all remaining wells on the plate. • 8. From the 96-well compound dilution plate, add 2 μL from each well for each compound to each of 4 wells with “enzyme containing” reaction mix. Columns 23 and 24 on the assay plate will contain only DMSO (vehicle control).

The target in experiment [2] is T2, recombinant human sPLA2-V enzyme (Homo sapiens, UniProt P39877).
T2 construct: made in house; host or cells: E. coli
T2 sequence (P39877 21-138): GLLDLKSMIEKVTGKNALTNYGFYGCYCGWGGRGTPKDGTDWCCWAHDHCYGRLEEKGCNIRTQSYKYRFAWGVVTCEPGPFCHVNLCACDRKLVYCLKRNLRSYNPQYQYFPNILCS
Put plainly: sPLA2-V enzyme inhibition assay (thio-PC substrate, DTNB detection, absorbance 410 nm). The following applies: class symbols; read-out: sPLA2 Type V Inhibition (IC50; nM).
From the text: as §1, §2, §3, §4

A further experiment addresses T3, sPLA2-X protein (Homo sapiens, UniProt O15496).
T3 sequence (O15496 43-165): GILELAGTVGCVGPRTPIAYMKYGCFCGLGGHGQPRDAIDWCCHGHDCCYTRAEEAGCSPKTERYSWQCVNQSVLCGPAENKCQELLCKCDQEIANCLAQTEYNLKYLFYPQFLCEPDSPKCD
Put plainly: sPLA2-X enzyme inhibition assay (thio-PC substrate, DTNB detection, absorbance 410 nm). Also noted: made in house; host or cells: E. coli. The following applies: class symbols.
From the text: as §1, §2, §3, §4

The mark [3] stands for this setting: read-out: sPLA2 Type X Inhibition (IC50; nM).
Where [4] appears, read: sPLA2 Type X Inhibition (IC50; nM).

The structures appear in SMILES notation. Where a name gives a salt, the structure may show the parent alone. Read-outs that look alike come from different tables or passages of the source.

As for `NC(=O)c1cc2ccc(OC(F)(F)F)cc2n1-c1cccc(CC2(C(=O)O)CC2)c1` [Compound 19, 1-(3-(2-carbamoyl-6-(trifluoromethoxy)-1H-indol-1-yl)benzyl)cyclopropane-1-carboxylic acid], the results for the IC50 (in experiment [1]; in experiment [2]; at sPLA2-X protein (setting [3])) were more than 1000 nM, more than 5000 nM and more than 200 nM, respectively.

With `NC(=O)c1cc2ccc(OC(F)(F)F)cc2n1-c1ccc2occ(C(=O)O)c2c1` [Compound 20, 5-(2-carbamoyl-6-(trifluoromethoxy)-1H-indol-1-yl)benzofuran-3-carboxylic acid], the half-inhibitory concentration (IC50) (usually the concentration that gives 50% inhibition) in experiment [1] is more than 1000 nM; in experiment [2], more than 5000 nM; on sPLA2-X protein (setting [3]) it was more than 200 nM.

Turning to `NC(=O)c1cc2ccccc2n1-c1cccc(CCC(=O)O)c1` [Compound 21, 3-(3-(2-carbamoyl-1H-indol-1-yl)phenyl)propanoic acid], the values for the half-maximal inhibitory concentration (IC50) (in experiment [1]; in experiment [2]; at sPLA2-X protein (setting [3])) were more than 1000 nM, more than 5000 nM and more than 200 nM, respectively.

For `CC(C)(CC(=O)O)c1cccc(-n2c(C(N)=O)cc3ccc(OC(F)(F)F)cc32)c1` [Compound 22, 3-(3-(2-carbamoyl-6-(trifluoromethoxy)-1H-indol-1-yl)phenyl)-3-methylbutanoic acid], the figures for the IC50 (in experiment [1]; in experiment [2]; at sPLA2-X protein (setting [3])) were more than 1000 nM, 1500 to 5000 nM and less than 20 nM, respectively.

Consider `NC(=O)c1cc2ccc(OC(F)(F)F)cc2n1-c1cccc(C[C@@H](N)C(=O)O)c1` [Compound 23, (R)-2-amino-3-(3-(2-carbamoyl-6-(trifluoromethoxy)-1H-indol-1-yl)phenyl)propanoic acid TFA salt], for which the figures for the IC50 (in experiment [1]; in experiment [2]; on sPLA2-X protein (setting [3])) were more than 1000 nM, more than 5000 nM and more than 200 nM, respectively.

With `NC(=O)c1cc2ccc(OC(F)(F)F)cc2n1-c1cccc(C[C@H](N)C(=O)O)c1` [Compound 24, (S)-2-amino-3-(3-(2-carbamoyl-6-(trifluoromethoxy)-1H-indol-1-yl)phenyl)propanoic acid TFA salt], the IC50 in experiment [1] was more than 1000 nM; in experiment [2], more than 5000 nM; on sPLA2-X protein (setting [3]) it was more than 200 nM.

Consider `NC(=O)c1oc2ccccc2c1-c1cccc(CCC(=O)O)c1` [Compound 25, 3-(3-(2-carbamoylbenzofuran-3-yl)phenyl)propanoic acid], for which the half-maximal inhibitory concentration (IC50) is more than 1000 nM in experiment [1], more than 5000 nM in experiment [2] and more than 200 nM at sPLA2-X protein (setting [3]).

As to `CC(C)(C)OC(=O)NCc1cccc(-n2c(C(N)=O)cc3ccc(OC(F)(F)F)cc32)n1` [Compound 26, tert-butyl ((6-(2-carbamoyl-6-(trifluoromethoxy)-1H-indol-1-yl)pyridin-2-yl)methyl)carbamate], the IC50 was more than 1000 nM in experiment [1], more than 5000 nM in experiment [2] and more than 200 nM on sPLA2-X protein (setting [3]).

`NCc1cccc(-n2c(C(N)=O)cc3ccc(OC(F)(F)F)cc32)n1` [Compound 27, 1-(6-(aminomethyl)pyridin-2-yl)-6-(trifluoromethoxy)-1H-indole-2-carboxamide TFA salt]: the IC50 in experiment [1] is more than 1000 nM; in experiment [2], more than 5000 nM; on sPLA2-X protein (setting [3]), more than 200 nM.

With `NC(=O)c1[se]c2ccc(OC(F)(F)F)cc2c1-c1cccc(CCC(=O)O)c1` [Compound 29, 3-(3-(2-carbamoyl-5-(trifluoromethoxy)benzo[b]selenophen-3-yl)phenyl)propanoic acid], the IC50 was 500 to 1000 nM in experiment [1], 1500 to 5000 nM in experiment [2] and 50 to 200 nM against sPLA2-X protein (setting [4]).

Take `NC(=O)c1cc2ccc(OC(F)(F)F)cc2n1-c1cccc(C2(CC(=O)O)CCC2)c1` [Compound 30, 2-(1-(3-(2-carbamoyl-6-(trifluoromethoxy)-1H-indol-1-yl)phenyl)cyclobutyl)acetic acid]: the IC50 is more than 1000 nM in experiment [1], 1500 to 5000 nM in experiment [2] and less than 20 nM on sPLA2-X protein (setting [3]).

As for `NC(=O)c1cc2ccc(OC(F)(F)F)cc2n1-c1cccc(C2(CC(=O)O)CC2)c1` [Compound 31, 2-(1-(3-(2-carbamoyl-6-(trifluoromethoxy)-1H-indol-1-yl)phenyl)cyclopropyl)acetic acid], the IC50 in experiment [1] was more than 1000 nM; in experiment [2] it was less than 500 nM; on sPLA2-X protein (setting [3]), less than 20 nM.

As to `CC(=O)NCc1cccc(-n2c(C(N)=O)cc3ccc(OC(F)(F)F)cc32)n1` [Compound 32, 1-(6-(acetamidomethyl)pyridin-2-yl)-6-(trifluoromethoxy)-1H-indole-2-carboxamide], the values for the 50% inhibitory concentration (IC50) (in experiment [1]; in experiment [2]; on sPLA2-X protein (setting [3])) were more than 1000 nM, more than 5000 nM and more than 200 nM, respectively.

As to `CS(=O)(=O)NCc1cccc(-n2c(C(N)=O)cc3ccc(OC(F)(F)F)cc32)n1` [Compound 33], the 50% inhibitory concentration (IC50) is more than 1000 nM in experiment [1], more than 5000 nM in experiment [2] and more than 200 nM at sPLA2-X protein (setting [3]).

As to `NC(=O)c1[se]c2ccc(OC(F)(F)F)cc2c1-c1cccc(C2(CC(=O)O)CC2)c1` [Compound 34, 2-(1-(3-(2-carbamoyl-5-(trifluoromethoxy)benzo[b]selenophen-3-yl)phenyl)cyclopropyl)acetic acid], the IC50 in experiment [1] was more than 1000 nM; in experiment [2] it was 1500 to 5000 nM; on sPLA2-X protein (setting [4]) it was 20 to 50 nM.

In the case of `COC(=O)CC1(c2cccc(-c3c(C(N)=O)sc4ccc(OC(F)(F)F)cc34)c2)CC1` [Compound 35, methyl 2-(1-(3-(2-carbamoyl-5-(trifluoromethoxy)benzo[b]thiophen-3-yl)phenyl)cyclopropyl)acetate], the IC50 in experiment [1] is more than 1000 nM; in experiment [2], more than 5000 nM; at sPLA2-X protein (setting [3]), more than 200 nM.

For `NC(=O)c1sc2ccc(OC(F)(F)F)cc2c1-c1cccc(C2(CC(=O)O)CC2)c1` [Compound 36, 2-(1-(3-(2-carbamoyl-5-(trifluoromethoxy)benzo[b]thiophen-3-yl)phenyl)cyclopropyl)acetic acid], the figures for the IC50 (in experiment [1]; in experiment [2]; on sPLA2-X protein (setting [3])) were more than 1000 nM, 500 to 1500 nM and less than 20 nM, respectively.

On to `NC(=O)c1cc2ccc(OC(F)(F)F)cc2n1-c1cccc(CNC(=O)C(F)(F)F)n1` [Compound 37, 1-(6-((2,2,2-trifluoroacetamido)methyl)pyridin-2-yl)-6-(trifluoromethoxy)-1H-indole-2-carboxamide], for which the concentration for half-maximal inhibition (IC50) in experiment [1] was more than 1000 nM; in experiment [2], more than 5000 nM; on sPLA2-X protein (setting [3]) it was more than 200 nM.

For `O=C(O)c1cc2ccc(OC(F)(F)F)cc2n1-c1cccc(C2(C(=O)O)CC2)n1` [Compound 39, 1-(6-(1-carboxycyclopropyl)pyridin-2-yl)-6-(trifluoromethoxy)-1H-indole-2-carboxylic acid], the values for the half-inhibitory concentration (IC50) (in experiment [1]; in experiment [2]; at sPLA2-X protein (setting [3])) were more than 1000 nM, more than 5000 nM and more than 200 nM, respectively.

Values taken from US20260034111A1, “NOVEL HETEROCYCLES AS sPLA2-X INHIBITORS” (Cayman Chemical Company Incorporated, priority 2022, published 2026).
